Experimental data reported in patent publication US20230033360A1, “COMPOUNDS AS CD73 INHIBITORS” (BioArdis LLC, priority 2019, published 2023).

Target: T1, Recombinant Human 5′-Nucleotidase (CD73) (Homo sapiens, UniProt P21589)
T1 construct: CHO derived CD73 (Trp27-Lys547), with a C-terminal 6-His tag; 6-His (C); purchased R&D 5795-EN; host or cells: CHO
T1 sequence (P21589 27-547): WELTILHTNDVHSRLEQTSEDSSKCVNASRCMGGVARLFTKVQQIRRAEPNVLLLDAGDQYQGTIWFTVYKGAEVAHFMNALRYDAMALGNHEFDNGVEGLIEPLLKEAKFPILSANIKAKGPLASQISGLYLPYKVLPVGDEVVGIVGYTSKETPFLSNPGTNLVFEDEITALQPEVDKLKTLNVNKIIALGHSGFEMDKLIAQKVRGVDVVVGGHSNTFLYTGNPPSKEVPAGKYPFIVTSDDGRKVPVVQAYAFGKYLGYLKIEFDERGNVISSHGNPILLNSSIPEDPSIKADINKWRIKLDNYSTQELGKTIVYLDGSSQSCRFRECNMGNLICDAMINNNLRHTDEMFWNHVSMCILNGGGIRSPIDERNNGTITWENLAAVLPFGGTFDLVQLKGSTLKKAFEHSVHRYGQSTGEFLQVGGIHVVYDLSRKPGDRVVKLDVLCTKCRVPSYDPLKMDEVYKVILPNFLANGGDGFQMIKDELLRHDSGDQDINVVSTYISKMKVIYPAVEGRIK
Experiment: CD73 Enzyme Assay (PiColorLock inorganic phosphate detection, AMP substrate)
Format: biochemical
Conditions: human CD73 0.5 nM, AMP 30 μM, 20 min at 37° C., absorbance 635 nm; read-out: Potency (IC50)
Description: Soluble recombinant CD73 catalyzes the conversion of adenosine monophosphate (AMP) to adenosine and inorganic phosphate. The phosphate detection reagent, PiColorLock™ (Innova Bioscience, Cat #303-0125) is based on the change in absorbance of the dye malachite green in the presence of inorganic phosphate (Pi) and this property can be exploited to measure any enzyme that generates Pi. Recombinant Human 5′-Nucleotidase (CD73) (R&D #5795-EN, CHO derived CD73 (Trp27-Lys547), with a C-terminal 6-His tag) was used in the enzymatic assay. This assay, run in a 384-well plate format (Corning® NBS™ 384 well plates, Cat #3640), is a generic method for measuring inorganic phosphate. The basic assay procedure involves two steps: 1) Enzyme reaction: The CD73 enzyme (R&D #5795-EN) is incubated in the presence or absence of compounds. AMP (sigma, cat #01930) is added to start the […] reaction. 2) Detection step: Gold mix is added to the assay system, then stabilizers are added. After incubation the absorbance of the solution is read at OD 635 nm. The recorded OD signal is proportional to the enzyme activity.
Briefly, 25 μl human CD73 (0.5 nM final concentration) in the enzymatic buffer solutions (20 mM Tris, 25 mM NaCl, 1 mM MgCl2, pH 7.5, 0.005% Tween-20) were mixed with various concentrations of the test compound (dissolved in 100% DMSO). These solutions were incubated for 15 min at 25° C., and subsequently 25 μl AMP (30 μM final concentration) was added to start the reaction. The final reaction mixture of enzyme-substrate-compound was incubated for 20 min at 37° C. Meanwhile ‘Gold mix’ was prepared shortly before use by adding 1/100 vol. of accelerator to the PiColorLock™ Gold reagent. 12 μL/well of the ‘Gold mix’ was added to assay plate containing 50 μL enzyme reaction buffer and incubated at 25° C. for 5 min. 5 μL/well stabilizer was added to the assay plate and incubated at 25° C. for 30 min. The absorbance of the well solutions was measured at 635 nm on a Spark 10M instrument (TECAN).
The percent (%) inhibition at each concentration of a compound was calculated relative to the […] value in the Max and Min control wells contained within each assay plate. The Max control wells contained enzyme and substrate as 0% inhibition, and the Min control wells only contained substrate without enzyme as 100% inhibition. The concentrations and percent inhibition values for a test compound are plotted and the concentration of the compound required to achieve 50% inhibition (IC50) was determined with a four-parameter logistic dose response equation.

Compound	IC50
C[C@H](Nc1cc(Cl)nn2c([C@@H]3O[C@H](COP(=O)(O)CP(=O)(O)O)[C@@H](O)[C@H]3O)ncc12)c1ccccc1F [Example S37, (((((2R,3S,4R,5S)-5-(2-chloro-4-(((S)-1-(2-fluorophenyl)ethyl)amino)imidazo[1,5-b]pyridazin-7-yl)-3,4-dihydroxytetrahydrofuran-2-yl)methoxy)(hydroxy)phosphoryl)methyl)phosphonic acid]	1 to 9.9 nM
O=P(O)(O)CP(=O)(O)OC[C@H]1O[C@@H](c2ncc3c(NC4CCCC4)cc(Cl)nn23)[C@H](O)[C@@H]1O [Example S7, (((((2R,3S,4R,5S)-5-(2-chloro-4-(cyclopentylamino)imidazo[1,5-b]pyridazin-7-yl)-3,4-dihydroxytetrahydrofuran-2-yl)methoxy)(hydroxy)phosphoryl)methyl)phosphonic acid]	1 to 9.9 nM
O=P(O)(O)CP(=O)(O)OC[C@H]1O[C@@H](c2ncc3c(N4CC5CC5C4)cc(Cl)nn23)[C@H](O)[C@@H]1O (stereo partly drawn) [Example S39, (((((2R,3S,4R,5S)-5-(4-(3-azabicyclo[3.1.0]hexan-3-yl)-2-chloroimidazo[1,5-b]pyridazin-7-yl)-3,4-dihydroxytetrahydrofuran-2-yl)methoxy)(hydroxy)phosphoryl)methyl)phosphonic acid]	1 to 9.9 nM
O=P(O)(O)CP(=O)(O)OC[C@H]1O[C@@H](c2cnc3c(NC4CCCCC4)cc(Cl)nn23)[C@H](O)[C@@H]1O [Example S5, (((((2R,3S,4R,5S)-5-(6-chloro-8-(cyclohexylamino)imidazo[1,2-b]pyridazin-3-yl)-3,4-dihydroxytetrahydrofuran-2-yl)methoxy)(hydroxy)phosphoryl)methyl)phosphonic acid]	1 to 9.9 nM
O=P(O)(O)CP(=O)(O)OC[C@H]1OC(c2cnc3c(NC4CCC(F)(F)C4)cc(Cl)nn23)[C@H](O)[C@@H]1O (stereo partly drawn) [Example S13, (((((2R,3S,4R)-5-(6-chloro-8-((3,3-difluorocyclopentyl)amino)imidazo[1,2-b]pyridazin-3-yl)-3,4-dihydroxytetrahydrofuran-2-yl)methoxy)(hydroxy)phosphoryl)methyl)phosphonic acid]	1 to 9.9 nM

More lines, now with the values ahead:

IC50	Compound
1 to 9.9 nM	O=P(O)(O)CP(=O)(O)OC[C@H]1OC(c2cnc3c(N4CCc5ccccc54)cc(Cl)nn23)[C@H](O)[C@@H]1O (stereo partly drawn) [Example S25, (((((2R,3S,4R)-5-(6-chloro-8-(indolin-1-yl)imidazo[1,2-b]pyridazin-3-yl)-3,4-dihydroxytetrahydrofuran-2-yl)methoxy)(hydroxy)phosphoryl)methyl)phosphonic acid]
1 to 9.9 nM	O=P(O)(O)CP(=O)(O)OC[C@H]1OC(c2cnc3c(N4CCc5ccccc5C4)cc(Cl)nn23)[C@H](O)[C@@H]1O (stereo partly drawn) [Example S28, (((((2R,3S,4R)-5-(6-chloro-8-(3,4-dihydroisoquinolin-2 (1H)-yl)imidazo[1,2-b]pyridazin-3-yl)-3,4-dihydroxytetrahydrofuran-2-yl)methoxy)(hydroxy)phosphoryl)methyl)phosphonic acid]
1 to 9.9 nM	O=P(O)(O)CP(=O)(O)OC[C@H]1O[C@@H](c2ncc3c(N4CCC[C@H]4c4ccccc4)cc(Cl)nn23)[C@H](O)[C@@H]1O [Example S8, (((((2R,3S,4R,5S)-5-(2-chloro-4-((S)-2-phenylpyrrolidin-1-yl)imidazo[1,5-b]pyridazin-7-yl)-3,4-dihydroxytetrahydrofuran-2-yl)methoxy)(hydroxy)phosphoryl)methyl)phosphonic acid]
10 to 99 nM	O=P(O)(O)CP(=O)(O)OC[C@H]1OC(c2cnc3c(N4CCCC4)cc(Cl)nn23)[C@@H](F)[C@@H]1O (stereo partly drawn) [Example S21, (((((2R,3R,4S)-5-(6-chloro-8-(pyrrolidin-1-yl)imidazo[1,2-b]pyridazin-3-yl)-4-fluoro-3-hydroxytetrahydrofuran-2-yl)methoxy)(hydroxy)phosphoryl)methyl)phosphonic acid]
